Values quoted from earlier work in US20120101168A1, “DEUTERIUM ENRICHED RASAGILINE” (priority 2010, published 2012).

Experiments:
CYP1A2 = CYP1A2 (Homo sapiens, UniProt P05177); conditions: forms several primary metabolites
MAO = conditions: more potent, but not in-vitro

Chain of CYP1A2 (P05177 whole entry): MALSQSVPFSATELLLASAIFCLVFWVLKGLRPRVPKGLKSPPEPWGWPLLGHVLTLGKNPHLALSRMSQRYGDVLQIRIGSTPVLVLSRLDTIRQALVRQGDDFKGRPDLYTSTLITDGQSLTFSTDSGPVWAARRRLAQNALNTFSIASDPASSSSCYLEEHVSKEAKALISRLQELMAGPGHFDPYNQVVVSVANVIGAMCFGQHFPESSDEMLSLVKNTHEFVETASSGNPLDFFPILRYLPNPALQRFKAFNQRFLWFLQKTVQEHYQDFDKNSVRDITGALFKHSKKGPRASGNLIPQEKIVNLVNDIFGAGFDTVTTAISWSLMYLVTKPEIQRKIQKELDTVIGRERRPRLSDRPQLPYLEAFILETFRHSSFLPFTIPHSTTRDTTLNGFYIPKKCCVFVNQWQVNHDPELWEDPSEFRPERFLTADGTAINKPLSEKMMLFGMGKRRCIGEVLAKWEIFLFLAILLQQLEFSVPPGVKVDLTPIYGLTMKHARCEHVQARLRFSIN

metabolism by CYP1A2 (CYP1A2)	SMILES	MAO inhibition potency compared with non-deuterated phenelzine (MAO)
slowly metabolized	C#CCN[C@@H]1CCc2ccccc21 [Rasagiline, R(+)-N-propargyl-1-aminoindan]	–
–	[2H]C([2H])(NN)C([2H])([2H])c1ccccc1 [deuterated phenelzine]	more potent MAO inhibitor
